Patent US6004959A, “Alkyloxyamino substituted fluorenones and their use as protein kinase-C inhibitors” (Hoechst Marion Roussel, Inc., priority 1997, dated 1999)
Counter-ions that a name gives are not always drawn.

Target: Protein kinase C (PKC)
Test: Protein kinase C assay (96-well, H1 histone phosphorylation, 32P-ATP)
Format: biochemical
Conditions: PKC partially purified from rat brain; H1 histone 200 μg, 50 μM ATP, 5-7 min, room temperature; estimated error of IC50 less than 10%
Protocol: Protein kinase C (PKC) was partially purified from the cytosol of rat brains as described by […]., Thromb. Res. 44:649-660, 1986. After removing the brains, all manipulations were carried out at 4° C. Briefly, the cerebellum was removed from 8-10 rat brains and each brain was then homogenized in 9 ml sucrose/EDTA (0.32 M sucrose, 1 mM EDTA, 5 mM Tris, pH 7.4). The pooled homogenate was then centrifuged at 1000×g for 10 min at 4° C., the pellet resuspended in the same volume of fresh sucrose/EDTA and recentrifuged at 1000×g for 10 min. at 4° C. The supernatants from each of these spins was pooled and centrifuged at 25,700×g for 30 min. at 4° C., and the resulting pellet homogenized in 20 ml of buffer A. (20 mM Tris pH 7.5, 0.1 mM calcium chloride, 0.4 mM leupeptin), at 4° C. Membrane associated PKC was then pelleted by centrifugation at 45,700×g at 4° C. for 15 min. and resuspended in 20 ml of buffer A. This step was repeated for a total of 3 centrifugations, discarding the supernatants and finally resuspending the pellet in 20 ml of buffer B (20 mM Tris pH 7.5, 1 mM EGTA, 1 mM EDTA, and 0.01 mM leupeptin) and stirring on ice for 30 min. Disassociated PKC was then collected by centrifuging at 45,700×g at 4° C. for 15 min. The pellet was discarded and the supernatant centrifuged at 100,000×g at 4° C. for 60 min. The pellet was again discarded and the supernatant was adjusted to remove all EDTA and EGTA by adding sufficient volume of a stock solution containing 100 mM each CaCl2 and MgCl2 to give a final concentration of 1 mM Ca^++ and 1 mM Mg^++. The resulting slurry was then applied to a 12 cm×1 cm DE-52 (DEAE cellulose, Whatman®) column previously equilibrated with buffer B. […] After washing the column with 70 ml of buffer B to remove unbound proteins, undesired proteins were eluted with 40 ml of buffer B containing 40 mM NaCl and the PKC containing fraction eluted with 20 ml of buffer B containing 150 mM NaCl. The PKC eluate was then concentrated to about 5 ml using an Amicon® ultrafiltration cell fitted with a PM-10 membrane, and excess NaCl removed by adding back 30 ml 5 mM Tris pH 7.4 and reconcentrating to a final volume of about 5 ml. The concentrated and desalted PKC prep was then adjusted to contain 10% glycerol and 0.5% Triton X-100 before aliquoting and storing 200 μL volumes at -70° C. Frozen preps were stable for at least 3 months at -70°0 C. Protein kinase C was assayed using a semi-automated 96-well plate procedure based upon the procedures of Aftab and Hait, and […] and Vial (Aftab, D. T. and W. N. Hait., Anal Biochem. 187:84-88. 1990.; […]. and Vial, H. J., Anal Biochem. 184:283-290. 1990). Briefly, each well of a 96 well "u" well microtiter plate received a total of 100 μl assay volume consisting of final concentrations of 30 mM Tris pH 7.4, 10 mM MgSO4, 1 mM EGTA, 200 μg Hl histone (Sigma Type III-S H5505), 50 μM ATP, 0.5 μCi 30 Ci/mmol ^32 P-ATP, and 30 μl PKC extract diluted in 5 mM Tris, pH 7.4 containing 1 mg per ml each of leupeptin, pepstatin and chymastatin, and 1 mM phenylmethylsulfonylfluoride. Reactions were started by adding the PKC extract and stopped by the addition of 50 μl 40% trichloroacetic acid, followed by 25 μl of 50 mM unlabelled ATP and 25 μl of 0.5% bovine serum albumin, and then collected on glass fiber filters using a Skatron® automatic micro cell harvester. Samples were washed for 30 seconds with 5% trichloroacetic acid, dried for 5 seconds on the harvester, and then transferred to scintillation vials for counting and subsequent data analysis. Reactions were run for five to seven minutes at room temperature. Data were fit to a competitive binding curve using the ENZFITTER® program (Biosoft). The error estimated for the IC50 values was less than 10%.

SMILES	IC50
CCN(CC)CCCOc1cccc2c1-c1ccc(OC)cc1C2=O [I.D. No. 103,388, 5-(3-Diethylamino-propoxy)-2-methoxy-fluoren-9-one]	56 µM
CCN(CC)CCOc1cccc2c1-c1c(OCCN(CC)CC)cccc1C2=O [I.D. No. 104,488]	92 µM
CCN(CC)CCOc1cccc2c1-c1ccc(OC)cc1C2=O [I.D. No. 103,949, 5-(2-Diethylamino-ethoxy)-2-methoxy-fluoren-9-one]	7 µM
CCCOc1ccc2c(c1)C(=O)c1cccc(OCCN(CC)CC)c1-2 [I.D. No. 103,049, 5-(2-Diethylamino-ethoxy)-2-propoxy-fluoren-9-one]	9 µM
CN(C)CCCOc1ccc2c(c1)C(=O)c1cccc(OCCCN(C)C)c1-2 [I.D. No. 102,352, 2,5-Bis-(3-dimethylamino-propoxy)-fluoren-9-one]	50 µM
CCCOc1cc(OC)c2c(c1)C(=O)c1cccc(OCCN3CCOCC3)c1-2 [I.D. No. 104,439, 5-[2-(morpholino-4-yl)-ethoxy]-4-methoxy-2-propyloxy-fluoren-9-one hydrochloride]	> 10 µM
CCN(CC)CCOc1ccc2c(c1)-c1c(OCCN(CC)CC)cccc1C2=O [I.D. No. 104,004, 3,5-Bis[(2-diethylamino)ethoxy]-fluoren-9-one]	4 µM
CCN(CC)CCOc1cccc2c1C(=O)c1cccc(OCCN(CC)CC)c1-2 [I.D. No. 104,147, 1,5-Bis[(diethylamino)ethoxy]-fluoren-9-one]	15 µM
CN(C)CCOc1ccc2c(c1)C(=O)c1cccc(OCCN(C)C)c1-2 [I.D. No. 101,209, 2,5-Bis-(2-dimethylamino-ethoxy)-fluoren-9-one]	11 µM

The next molecules have a lower IC50 than those just listed; values first:

IC50	SMILES
1 µM	CCN(CC)CCOc1cccc2c1-c1c(OC)cccc1C2=O [I.D. No. 104,652, 4-(2-diethylamino-ethoxy)-5-methoxy-fluoren-9-one]
0.576 µM	CCCOc1cc(OC)c2c(c1)C(=O)c1cccc(OCCN(CC)CC)c1-2 [I.D. No. 104,952, 5-(2-diethylamino-ethoxy)-4-methoxy-2-propoxy-fluoren-9-one]
0.16 µM	CCN(CC)CCOc1cccc2c1-c1c(OC)cc(OC)c(N)c1C2=O [I.D. No. 105,473, 1-Amino-5-(2-diethylamino-ethoxy)-2,4-dimethoxy-fluoren-9-one hydrochloride]
0.079 µM	CCCOc1cc(OC)c2c(c1N)C(=O)c1cccc(OCCN(CC)CC)c1-2 [I.D. No. 105,509, 1-Amino-5-(2-diethylamino-ethoxy)-4-methoxy-2-propoxy-fluoren-9-one]
0.9 µM	CCN(CC)CCOc1cccc2c1-c1c(OC)cc(OC)cc1C2=O [I.D. No. 105,950, 5-(2-Diethylamino-ethoxy)-2,4-dimethoxy-fluoren-9-one]
3 µM	CCN(CC)CCOc1ccc2c(c1)C(=O)c1cccc(OCCN(CC)CC)c1-2 [I.D. No. 11,080, 2,5-Bis[(2-diethylamino)ethoxy]-fluoren-9-one]
2.3 µM	CCCOc1cc(OC)c2c(c1N)C(=O)c1cccc(OCCN3CCOCC3)c1-2 [I.D. No. 104,427, 5-[2-(morpholino-4-yl)-ethoxy]-1-amino-4-methoxy-2-propyloxy-fluoren-9-one hydrochloride]
1.1 µM	CCN(CC)CCOc1cc(OC)c2c(c1)C(=O)c1cccc(OCCN(CC)CC)c1-2 [I.D. No. 105,711, 2,5-bis-(2-diethylamino-ethoxy)-4-methoxy-fluoren-9-one]
